From patent publication US9333265B2, “Organic-inorganic hybrid composite of polymerized nitroxide compound and inorganic particles” (UNIVERSITY OF TSUKUBA, priority 2012, dated 2016)

Columns and labels:
[1] = Blood uptake suppression after intraperitoneal administration (ESR signal in blood); assay type: in vivo
Source text: Normally, low-molecular-weight compounds are taken up into the blood after intraperitoneal administration, and are at risk of dispersing throughout the body.

[2] = high-dosage administration; cited from earlier work

## CC1(C)CCCC(C)(C)N1[O] [TEMPO]
[1]
  presence in blood after intraperitoneal administration (ESR signal): present in blood for an hour or more
[2]
  side-effects: reduced blood pressure and inhibition of the mitochondrial energy-transfer system
